Article PMC10465960 (Acta Pharmaceutica Sinica. B, 2023)

Target: Trx-A-NMt-PCP (module 2 of the Sas17 NRPS protein) (Streptomyces calvus, UniProt A0A514JVM2)
Conditions: NMt domain; methyl donor for PCP-bound Tyr; 5 mM SAM, 1 h

Trx-A-NMt-PCP (module 2 of the Sas17 NRPS protein), sequence (A0A514JVM2 1553-2567): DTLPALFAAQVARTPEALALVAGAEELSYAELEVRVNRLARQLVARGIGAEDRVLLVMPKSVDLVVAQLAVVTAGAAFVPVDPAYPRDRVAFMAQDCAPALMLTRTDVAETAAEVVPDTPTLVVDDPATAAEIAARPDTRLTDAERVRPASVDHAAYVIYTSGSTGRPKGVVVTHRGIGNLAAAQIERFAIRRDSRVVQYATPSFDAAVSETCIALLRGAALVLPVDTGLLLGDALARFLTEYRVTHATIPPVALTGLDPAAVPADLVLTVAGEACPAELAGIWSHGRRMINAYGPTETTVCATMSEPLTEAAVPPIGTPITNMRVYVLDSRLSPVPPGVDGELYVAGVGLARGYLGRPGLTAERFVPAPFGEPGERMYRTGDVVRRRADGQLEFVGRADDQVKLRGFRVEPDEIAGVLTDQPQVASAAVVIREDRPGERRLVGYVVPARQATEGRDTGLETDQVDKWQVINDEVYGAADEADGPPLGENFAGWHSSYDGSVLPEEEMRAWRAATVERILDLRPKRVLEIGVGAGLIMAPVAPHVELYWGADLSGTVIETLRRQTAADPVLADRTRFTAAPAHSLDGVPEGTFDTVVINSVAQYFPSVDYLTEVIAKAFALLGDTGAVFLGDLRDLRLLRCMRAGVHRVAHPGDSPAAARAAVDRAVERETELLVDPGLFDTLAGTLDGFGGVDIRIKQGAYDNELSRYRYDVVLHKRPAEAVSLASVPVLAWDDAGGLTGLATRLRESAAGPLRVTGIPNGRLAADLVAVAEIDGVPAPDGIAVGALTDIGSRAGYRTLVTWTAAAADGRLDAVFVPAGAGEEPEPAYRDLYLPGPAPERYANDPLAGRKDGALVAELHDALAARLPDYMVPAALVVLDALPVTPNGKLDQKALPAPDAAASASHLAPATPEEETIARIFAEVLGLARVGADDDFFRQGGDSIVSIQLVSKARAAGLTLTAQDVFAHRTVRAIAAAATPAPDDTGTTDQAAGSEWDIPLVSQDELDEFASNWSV

SMILES: C[S+](CC[C@H](N)C(=O)O)C[C@H]1O[C@@H](n2cnc3c(N)ncnc32)[C@H](O)[C@@H]1O (stereo partly shown) [SAM]
- LC-MS of methylamine-cleaved PCP thioester: Reconstitution of the Mt domain using SAM then led to the methylation of the PCP-bound
